Source: US11835503B2, “TMA-formation inhibitor treatment for elevated TMA-containing compound diseases” (The Cleveland Clinic Foundation, priority 2009, dated 2023)

Assays:
intestinal microflora [1] = assay: D3-carnitine gavage in mice, plasma D3-TMA and D3-TMANO by stable isotope dilution LC/MS/MS; assay type: in vivo; details: gavage at t=0, plasma
From the text: In additional work, mice were gavaged with D3-carnitine and the time dependent appearance of D3-TMA and TMANO were quantified in plasma. Where indicated in FIG. 8, mice were pretreated for 3 weeks with a broad spectrum antibiotic cocktail to suppress intestinal microflora. […] Plasma levels of the deuterium (D3) labeled metabolites of D3-carnitine, D3-TMA and D3-TMANO, were quantified in plasma by stable isotope dilution LC/MS/MS analysis. D3-Carnitine was given by gavage feeding to mice at t=0. Results are shown in FIG. 8, with TMA production shown in FIG. 8B and TMANO production in FIG. 8C.

intestinal microflora [2] = assay: D3-carnitine gavage in mice, plasma D3-crotonobetaine and D3-gamma-butyrobetaine by LC/MS/MS; assay type: in vivo
From the text: In further work, mice were gavaged with D3-carnitine and the time dependent appearance of D3-crotonobetaine and gamma butyrobetaine were quantified in plasma. Where indicated in FIG. 9, mice were pretreated for 3 weeks with a broad spectrum antibiotic cocktail to suppress intestinal microflora. […] D3-crotonobetaine and D3-gamma-butyrobetaine were quantified in plasma by LC/MS/MS analysis isolated at the indicated times following D3-carnitine gavage feeding. Results are shown in FIG. 9, with crotonbetaine production shown in FIG. 9A, and gamma-butyrobetain production shown in FIG. 9B.

intestinal flora = assay: oral d9-(trimethyl)-PC challenge in subjects, time course of plasma d9-TMA by LC/MS/MS; assay type: in vivo, humans; details: human subjects, 250 mg oral
Procedure: TMA is detected in plasma. While TMA is a gas at room and body temperature, if one acidifies the plasma, and the sample flash frozen and analyzed immediately upon thaw, one can measure the TMA cation by mass spectrometry.
Subjects were given 250 mg of d9-(trimethyl)-PC, and then time course of d9-TMA in plasma quantified. […] Plasma TMA was quantified by LC/MS/MS of samples immediately after blood draw, acidification of the plasma with 10 mM HCl to lower TMA vapor pressure, and snap freezing in liquid nitrogen and storage at −80 C until time of analysis.

Molecule | metabolites of D3-carnitine appearing in plasma (D3-TMA, D3-TMANO) (intestinal microflora [1]) | metabolites of D3-carnitine appearing in plasma (D3-crotonobetaine, D3-gamma-butyrobetaine) (intestinal microflora [2]) | time at which plasma d9-TMA levels increased after the PC challenge (intestinal flora)
[2H]C([2H])([2H])[N+](C)(C)CC(O)CC(=O)[O-] (stereo not drawn) [D3-carnitine] | both TMA and TMANO are generated as a metabolite of carnitine ingestion | both compounds are generated as a metabolite of carnitine ingestion | –
d9-(trimethyl)-PC | – | – | 4 to 8 h
